Tests used:
kochia = test: Test E preemergence herbicide test; type: in vivo, Kochia scoparia; set-up: key: 0 = no effect, 100 = complete control
Source text: (§1) Seeds of plant species selected from corn (Zea mays), soybean (Glycine max), velvetleaf (Abutilon theophrasti), lambsquarters (Chenopodium album), wild poinsettia (Euphorbia heterophylla), pigweed, palmer (palmer pigweed, Amaranthus palmeri), waterhemp (common waterhemp, Amaranthus rudis), surinam grass (Brachiaria decumbens), crabgrass, large (large crabgrass, Digitaria sanguinalis), crabgrass, Brazil (Brazilian crabgrass, Digitaria horizontalis), panicum, fall (fall panicum, Panicum dichotomiflorum), foxtail, giant (giant foxtail, Setaria faberii), foxtail, green (green foxtail, Setaria viridis), goosegrass (Eleusine indica), johnsongrass (Sorghum halepense), ragweed (common ragweed, Ambrosia elatior), barnyardgrass (Echinochloa crus-galli), sandbur (southern sandbur, Cenchrus echinatus), arrowleaf […] rhombifolia), ryegrass, Italian (Italian ryegrass, Lolium multiflorum), dayflower, VA (Virginia dayflower, Commelina virginica), field bindweed (Convolvulus arvensis), morningglory (Ipomoea coccinea), nightshade (eastern black nightshade, Solanum ptycanthum), kochia (Kochia scoparia), nutsedge, yellow (yellow nutsedge, Cyperus esculentus), cocklebur (common cocklebur, Xanthium strumarium), smartweed (ladysthumb smartweed, Polygonum Persicaria) and beggarticks (hairy beggarticks, Bidens pilosa), were planted into a silt loam soil and treated preemergence with test chemicals formulated in a non-phytotoxic solvent mixture which included a surfactant. Treated plants and controls were maintained in a greenhouse for 21 days, after which time all species were compared to controls and visually evaluated. Plant response ratings, summarized in Table E, are based on a scale of 0 to 100 where 0 is no effect and 100 is complete control. A dash (-) response means no test result.

barnyardgrass = test: Test E preemergence herbicide test; type: in vivo, Echinochloa crus-galli; set-up: key: 0 = no effect, 100 = complete control
Source text: as §1

barley, winter = test: Test D pre-/postemergence herbicide test; type: in vivo, Hordeum vulgare; conditions: for Plant response rating: Barley, Winter, scale 0 to 100; for Plant response rating, Barley, Winter: scale 0 to 100 (0 no effect, 100 complete control)
Summary of the method: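 Test chemicals in a non-phytotoxic solvent with surfactant were applied preemergence to seeds in silt loam soil and postemergence to plants at 2-18 cm (1- to 4-leaf stage) in peat-based medium. After 7 to 21 days in a controlled environment, injury was rated visually versus controls on a 0-100 scale (100 = complete control).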

cocklebur = test: Test C pre-/postemergence herbicide test; type: in vivo, Xanthium strumarium
Source text: Seeds of plant species selected from blackgrass (Alopecurus myosuroides), ryegrass, Italian (Italian ryegrass, Lolium multiflorum), wheat (winter wheat, Triticum aestivum), galium (catchweed bedstraw, Galium aparine), corn (Zea mays), crabgrass, large (large crabgrass, Digitaria sanguinalis), foxtail, giant (giant foxtail, Setaria faberii), johnsongrass (Sorghum halepense), lambsquarters (Chenopodium album), morningglory (Ipomoea coccinea), nutsedge, yellow (yellow nutsedge, Cyperus esculentus), pigweed (Amaranthus retroflexus), ragweed (common ragweed, Ambrosia elatior), soybean (Glycine max), barnyardgrass (Echinochloa crus-galli), oilseed rape (Brassica napus), waterhemp (common waterhemp, Amaranthus rudis), kochia (Kochia scoparia), oat, wild (wild oat, Avena fatua), surinam grass (Brachiaria decumbens), foxtail, green (green foxtail, Setaria viridis), goosegrass (Eleusine indica), bromegrass, downy (downy bromegrass, Bromus tectorum), nightshade (eastern black nightshade, Solanum ptycanthum), cocklebur (common cocklebur, Xanthium strumarium), cupgrass, woolly (woolly cupgrass, Eriochloa villosa), bermudagrass (Cynodon dactylon), sunflower, (common oilseed sunflower, Helianthus annuus), Russian thistle (Salsola kali) and velvetleaf (Abutilon theophrasti) were planted into a blend of loam soil and sand and treated preemergence with test chemicals formulated in a non-phytotoxic solvent mixture which included a surfactant. At the same time, plants selected from these crop and weed species and also barley (winter barley, Hordeum vulgare), […]), chickweed (common chickweed, Stellaria media), deadnettle (henbit deadnettle, Lamium amplexicaule), and canarygrass (littleseed canarygrass, Phalaris minor) were planted in pots containing Redi-Earth® planting medium (Scotts Company, 14111 Scottslawn Road, Marysville, Ohio 43041) comprising spaghnum peat moss, vermiculite, wetting agent and starter nutrients and treated with postemergence applications of test chemicals formulated in the same manner. Plants ranged in height from 2 to 18 cm (1- to 4-leaf stage) for postemergence treatments. Treated plants and controls were maintained in a greenhouse for 13 to 15 days, after which time all species were compared to controls and visually evaluated. Plant response ratings, summarized in Table C, are based on a scale of 0 to 100 where 0 is no effect and 100 is complete control. A dash (-) response means no test result.

canarygrass = test: Test D pre-/postemergence herbicide test; type: in vivo, Phalaris minor; conditions: for Plant response rating: Canarygrass, scale 0 to 100; for Plant response rating, Canarygrass: scale 0 to 100 (0 no effect, 100 complete control)
Source text: Seeds of plant species selected from bluegrass (annual bluegrass, Poa annua), blackgrass (Alopecurus myosuroides), canarygrass (littleseed canarygrass, Phalaris minor), chickweed (common chickweed, Stellaria media), galium (catchweed bedstraw, Galium aparine), bromegrass, downy (downy bromegrass, Bromus tectorum), field poppy (Papaver rhoeas), field violet (Viola arvensis), foxtail, green (green foxtail, Setaria viridis), deadnettle (henbit deadnettle, Lamium amplexicaule), ryegrass, Italian (Italian ryegrass, Lolium multiflorum), kochia (Kochia scoparia), lambsquarters (Chenopodium album), oilseed rape (Brassica napus), pigweed (Amaranthus retroflexus), chamomile (scentless chamomile, Matricaria inodora), Russian thistle (Salsola kali), speedwell (bird's-eye speedwell, Veronica persica), barley, spring (spring barley, Hordeum vulgare), wheat, spring (spring wheat, Triticum aestivum), buckwheat, wild (wild buckwheat, Polygonum convolvulus), mustard, wild (wild mustard, Sinapis arvensis), oat, wild (wild oat, Avena fatua), radish, wild (wild radish, Raphanus raphanistrum), […]), barley, winter (winter barley, Hordeum vulgare), and wheat, winter (winter wheat, Triticum aestivum) were planted into a silt loam soil and treated preemergence with test chemicals formulated in a non-phytotoxic solvent mixture which included a surfactant. At the same time, these species were planted in pots containing Redi-Earth® planting medium (Scotts Company, 14111 Scottslawn Road, Marysville, Ohio 43041) comprising spaghnum peat moss, vermiculite, wetting agent and starter nutrients and treated with postemergence applications of the test chemicals formulated in the same manner. Plants ranged in height from 2 to 18 cm (1- to 4-leaf stage). Treated plants and controls were maintained in a controlled growth environment for 7 to 21 days after which time all species were compared to controls and visually evaluated. Plant response ratings, summarized in Table D, are based on a scale of 0 to 100 where 0 is no effect and 100 is complete control. A dash (-) response means no test result.

bromegrass, downy = test: Test C pre-/postemergence herbicide test; type: in vivo, Bromus tectorum
Summary of the method: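 Pre-emergence: seeds sown in loam/sand blend and treated with compound in surfactant-containing solvent. Post-emergence: plants at 2–18 cm (1- to 4-leaf stage) in peat-based medium sprayed with the same formulation. Visual rating versus controls after 13–15 days in greenhouse, scale 0 (no effect) to 100 (complete control).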

[1] = Postemergence, 31 g ai/ha, scale 0 (no effect) to 100 (complete control)
[2] = Postemergence, 62 g ai/ha, scale 0 to 100 (0 no effect, 100 complete control)
[3] = Postemergence, 125 g ai/ha, scale 0 to 100 (0 no effect, 100 complete control)
[4] = Postemergence, 250 g ai/ha, scale 0 to 100 (0 no effect, 100 complete control)
[5] = Preemergence, 62 g ai/ha, scale 0 to 100
[6] = Preemergence, 125 g ai/ha, scale 0 to 100 (0 no effect, 100 complete control)
[7] = Preemergence, 31 g ai/ha, scale 0 to 100 (0 no effect, 100 complete control)

In the case of `O=C1NCC(c2ccc(OC(F)F)cc2)C1C(=O)Nc1cccc(F)c1F` (racemic) [Compound 350], the “Plant response rating, Kochia” value (kochia; 31 g ai/ha) is reported as 0, the “Plant response rating, Kochia” value (kochia; 62 g ai/ha) is reported as 40 and the “Plant response rating, Kochia” value (kochia; 125 g ai/ha) is reported as 75. The “Plant response rating, Kochia” value (kochia; 250 g ai/ha) was 90, the “Plant response rating, Barnyardgrass” value (barnyardgrass; 31 g ai/ha) was 15 and the “Plant response rating, Barnyardgrass” value (barnyardgrass; 62 g ai/ha) was 40. For the same molecule, the “Plant response rating, Barnyardgrass” value (barnyardgrass; 125 g ai/ha) was 60 and the “Plant response rating, Barnyardgrass” value (barnyardgrass; 250 g ai/ha) was 98.

In the case of `O=C1NCC(c2cc(F)c(F)cc2F)C1C(=O)Nc1cccc(F)c1F` (stereo not shown) [Compound 50], the Plant response rating (barley, winter; Postemergence, 16 g ai/ha) is reported as 0, the Plant response rating (barley, winter; Postemergence, 31 g ai/ha) is reported as 0 and the Plant response rating (barley, winter; Postemergence, 62 g ai/ha) is reported as 0. The Plant response rating (barley, winter; Postemergence, 125 g ai/ha) was 0, the “Plant response rating, Barley, Winter” value (barley, winter; Preemergence, 62 g ai/ha) was 0 and the “Plant response rating, Barley, Winter” value (barley, winter; Preemergence, 16 g ai/ha) was 0. For the same molecule, the “Plant response rating, Barley, Winter” value (barley, winter; Preemergence, 31 g ai/ha) was 0, the Plant response rating (barley, winter; Preemergence, 125 g ai/ha) was 0 and the “Plant response rating, Cocklebur” value (cocklebur; [1]) was 5. The “Plant response rating, Cocklebur” value (cocklebur; [2]) was 5, the “Plant response rating, Cocklebur” value (cocklebur; [3]) was 5 and the “Plant response rating, Cocklebur” value (cocklebur; [4]) was 5. The Plant response rating (canarygrass; Postemergence, 16 g ai/ha) was 0, the Plant response rating (canarygrass; Postemergence, 31 g ai/ha) was 0 and the Plant response rating (canarygrass; Postemergence, 62 g ai/ha) was 0. For the same molecule, the Plant response rating (canarygrass; Postemergence, 125 g ai/ha) was 0, the “Plant response rating, Canarygrass” value (canarygrass; Preemergence, 62 g ai/ha) was 0 and the “Plant response rating, Canarygrass” value (canarygrass; Preemergence, 16 g ai/ha) was 0. For the same molecule, the “Plant response rating, Canarygrass” value (canarygrass; Preemergence, 31 g ai/ha) was 0, the Plant response rating (canarygrass; Preemergence, 125 g ai/ha) was 0 and the “Plant response rating, Bromegrass, Downy” value (bromegrass, downy; [1]) was 0. For the same molecule, the “Plant response rating, Bromegrass, Downy” value (bromegrass, downy; [2]) was 0, the “Plant response rating, Bromegrass, Downy” value (bromegrass, downy; [3]) was 0 and the “Plant response rating, Bromegrass, Downy” value (bromegrass, downy; [4]) was 0.

Molecule `O=C1NCC(c2ccc(Cl)c(F)c2)C1C(=O)Nc1cccc(F)c1F` (stereo not shown) [Compound 52] has a Plant response rating (barley, winter; Postemergence, 16 g ai/ha) of 0, a Plant response rating (barley, winter; Postemergence, 31 g ai/ha) of 0 and a Plant response rating (barley, winter; Postemergence, 62 g ai/ha) of 0. For the same molecule, the Plant response rating (barley, winter; Postemergence, 125 g ai/ha) was 0, the Plant response rating (barley, winter; Postemergence, 250 g ai/ha) was 0 and the “Plant response rating, Barley, Winter” value (barley, winter; Preemergence, 62 g ai/ha) was 0. The “Plant response rating, Barley, Winter” value (barley, winter; Preemergence, 16 g ai/ha) was 0, the “Plant response rating, Barley, Winter” value (barley, winter; Preemergence, 31 g ai/ha) was 0 and the Plant response rating (barley, winter; Preemergence, 125 g ai/ha) was 0. For the same molecule, the Plant response rating (barley, winter; Preemergence, 250 g ai/ha) was 25, the “Plant response rating, Cocklebur” value (cocklebur; [1]) was 5 and the “Plant response rating, Cocklebur” value (cocklebur; [2]) was 5. For the same molecule, the “Plant response rating, Cocklebur” value (cocklebur; [3]) was 5, the “Plant response rating, Cocklebur” value (cocklebur; [4]) was 5 and the “Plant response rating, Cocklebur” value (cocklebur; [5]) was 0. For the same molecule, the “Plant response rating, Cocklebur” value (cocklebur; [6]) was 0, the “Cocklebur plant response rating” value (cocklebur; [7]) was 0 and the Plant response rating (canarygrass; Postemergence, 16 g ai/ha) was 0. The Plant response rating (canarygrass; Postemergence, 31 g ai/ha) was 0, the Plant response rating (canarygrass; Postemergence, 62 g ai/ha) was 0 and the Plant response rating (canarygrass; Postemergence, 125 g ai/ha) was 0. The Plant response rating (canarygrass; Postemergence, 250 g ai/ha) was 0, the “Plant response rating, Canarygrass” value (canarygrass; Preemergence, 62 g ai/ha) was 0 and the “Plant response rating, Canarygrass” value (canarygrass; Preemergence, 16 g ai/ha) was 0. The “Plant response rating, Canarygrass” value (canarygrass; Preemergence, 31 g ai/ha) was 0, the Plant response rating (canarygrass; Preemergence, 125 g ai/ha) was 0 and the Plant response rating (canarygrass; Preemergence, 250 g ai/ha) was 0. The “Plant response rating, Bromegrass, Downy” value (bromegrass, downy; [1]) was 0, the “Plant response rating, Bromegrass, Downy” value (bromegrass, downy; [2]) was 0 and the “Plant response rating, Bromegrass, Downy” value (bromegrass, downy; [3]) was 0. The “Plant response rating, Bromegrass, Downy” value (bromegrass, downy; [4]) was 10, the “Plant response rating, Bromegrass, Downy” value (bromegrass, downy; [5]) was 0 and the “Plant response rating, Bromegrass, Downy” value (bromegrass, downy; [6]) was 0. The “Bromegrass, Downy plant response rating” value (bromegrass, downy; [7]) was 0 and the “Plant response rating, Bromegrass, Downy” value (bromegrass, downy; Preemergence, 250 g ai/ha, scale 0 to 100 (0 no effect, 100 complete control)) was 0.

From US10294202B2, “Pyrrolidinones as herbicides” (FMC Corporation, priority 2013, dated 2019)
